# Source: US20240417369A1, “RXFP1 AGONISTS” (BRISTOL-MYERS SQUIBB COMPANY, priority 2021, published 2024)
# Key:
# human RXFP1 = biological target: T1, human RXFP1 (Homo sapiens, UniProt Q9HBX9); assay: cAMP hRXFP1 HEK293 Assay; assay type: cell-based; conditions: HEK293 cells stably expressing human RXFP1; 30 min at room temperature; HTRF cAMP
# T1 construct: expressed in transfected cells
# T1 sequence (Q9HBX9 1-757): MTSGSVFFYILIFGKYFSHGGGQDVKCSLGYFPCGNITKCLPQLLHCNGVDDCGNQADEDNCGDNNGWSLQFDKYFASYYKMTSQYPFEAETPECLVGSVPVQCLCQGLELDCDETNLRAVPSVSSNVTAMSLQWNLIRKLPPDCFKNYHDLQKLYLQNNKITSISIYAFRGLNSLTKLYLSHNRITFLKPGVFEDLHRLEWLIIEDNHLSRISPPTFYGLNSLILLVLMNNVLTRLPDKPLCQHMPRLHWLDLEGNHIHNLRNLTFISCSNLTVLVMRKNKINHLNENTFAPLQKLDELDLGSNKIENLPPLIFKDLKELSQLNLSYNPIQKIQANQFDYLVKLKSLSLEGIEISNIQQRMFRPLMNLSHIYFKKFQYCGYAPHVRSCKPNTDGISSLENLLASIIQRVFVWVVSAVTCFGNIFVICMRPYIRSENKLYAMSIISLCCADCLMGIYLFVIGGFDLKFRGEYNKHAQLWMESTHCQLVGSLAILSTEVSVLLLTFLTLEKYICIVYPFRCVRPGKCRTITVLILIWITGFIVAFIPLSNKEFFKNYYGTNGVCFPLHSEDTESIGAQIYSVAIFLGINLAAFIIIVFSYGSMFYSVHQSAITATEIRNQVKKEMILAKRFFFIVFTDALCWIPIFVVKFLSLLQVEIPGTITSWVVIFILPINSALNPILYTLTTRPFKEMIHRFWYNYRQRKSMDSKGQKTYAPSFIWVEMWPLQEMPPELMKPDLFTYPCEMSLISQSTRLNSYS
# Protocol: RXFP1 Cyclic Adenosine Monophosphate (cAMP) Assays. Human embryonic kidney cells 293 (HEK293) cells and HEK293 cells stably expressing human RXFP1, were cultured in MEM medium supplemented with 10% qualified FBS, and 300 μg/ml hygromycin (Life Technologies). Cells were dissociated and suspended in assay buffer. The assay buffer was HBSS buffer (with calcium and magnesium) containing 20 mM HEPES. 0.05% BSA, and 0.5 mM IBMX. Cells (3000 cells per well, except 1500 cell per well for HEK293 cells stably expressing human RXFP1) were added to 384-well Proxiplates (Perkin-Elmer). Cells were immediately treated with test compounds in DMSO (2% final) at final concentrations in the range of 0.010 nM to 50 μM. Cells were incubated for 30 min at room temperature. The level of intracellular cAMP was determined using the HTRF HiRange cAMP assay reagent kit (Cisbio) according to manufacturer's instructions. Solutions of cryptate conjugated anti-cAMP and d2 fluorophore-labelled cAMP were made in a supplied lysis buffer separately. Upon completion of the reaction, the cells were lysed with equal volume of the d2-cAMP solution and anti-cAMP solution. After a 1 h room temperature incubation, time-resolved fluorescence intensity was measured using the Envision (Perkin-Elmer) at 400 nm excitation and dual emission at 590 nm and 665 nm. A calibration curve was constructed with an external cAMP standard at concentrations ranging from 2.7 μM to 0.1 μM by plotting the fluorescent intensity ratio from 665 nm emission to the intensity from the 590 nm emission against cAMP concentrations. The potency and activity of a compound to inhibit cAMP production was then determined by fitting to a 4-parametric logistic equation from a plot of cAMP level versus compound concentrations.
# The examples disclosed below were tested in the human RXFP1 (hRXFP1) HEK293 cAMP assay described above and found to have agonist activity. Table I lists EC50 values in the hRXFP1 HEK293 cAMP assay measured for the examples.
# [1] = intravenous (IV) formulation; cited from earlier work
EC50 (human RXFP1),Compound,first-phase pharmacokinetic half-life [1]
930 nM,"O=C(O)c1cccc(C2CCCC(C(=O)N[C@H]3[C@@H](C(=O)Nc4ccc(F)c(C(F)(F)F)c4)[C@H]4CC[C@@H]3/C4=C\C(F)(F)F)C2)c1 (single isomer, unassigned) [Example 1]",–
300 nM,"O=C(O)c1cccc(C2CCCC(C(=O)N[C@H]3[C@@H](C(=O)Nc4ccc(F)c(C(F)(F)F)c4)[C@H]4CC[C@@H]3/C4=C\C(F)(F)F)C2)c1 (single isomer, unassigned) [Example 2]",–
510 nM,"O=C(O)c1cccc(C2CCCC(C(=O)N[C@H]3[C@@H](C(=O)Nc4ccc(F)c(C(F)(F)F)c4)[C@H]4CC[C@@H]3/C4=C\C(F)(F)F)C2)c1 (single isomer, unassigned) [Example 3]",–
510 nM,"O=C(O)c1cccc(C2CCC(C(=O)N[C@H]3[C@@H](C(=O)Nc4ccc(F)c(C(F)(F)F)c4)[C@H]4CC[C@@H]3/C4=C\C(F)(F)F)C2)c1 (single isomer, unassigned) [Example 9]",–
2000 nM,"O=C(O)c1cccc(C2CCC(C(=O)NC3C4CCC(C4=CC(F)(F)F)C3C(=O)Nc3ccc(F)c(C(F)(F)F)c3)C2)c1 (single isomer, unassigned) [Example 10]",–
350 nM,"O=C(NC1C2CCC(/C2=C/C2CC2)[C@@H]1C(=O)Nc1ccc(F)c(C(F)(F)F)c1)C1CCC[C@H](C2=NOC3COCC23)C1 (single isomer, unassigned) [Example 12]",–
2900 nM,"O=C(N[C@@H]1C2CCC(/C2=C/C2CC2)[C@@H]1C(=O)Nc1ccc(F)c(C(F)(F)F)c1)C1CCC[C@H](C2=NOC3COCC23)C1 (single isomer, unassigned) [Example 13]",–
1600 nM,"O=C(N[C@@H]1C2CCC(/C2=C/C2CC2)[C@@H]1C(=O)Nc1ccc(F)c(C(F)(F)F)c1)C1CCC[C@H](C2=NOC3COCC23)C1 (single isomer, unassigned) [Example 14]",–
1400 nM,"O=C(N[C@@H]1C2CCC(/C2=C/C2CC2)[C@@H]1C(=O)Nc1ccc(F)c(C(F)(F)F)c1)C1CCC[C@H](C2=NOC3COCC23)C1 (single isomer, unassigned) [Example 15]",–
1600 nM,"O=C(N[C@H]1[C@@H](C(=O)Nc2ccc(F)c(C(F)(F)F)c2)[C@H]2CC[C@@H]1/C2=C\C1CC1)C1CCC[C@@H](C2=NOC3COCC23)C1 (single isomer, unassigned) [Example 17]",–
1000 nM,"O=C(N[C@H]1[C@@H](C(=O)Nc2ccc(F)c(C(F)(F)F)c2)[C@H]2CC[C@@H]1/C2=C\C1CC1)C1CCC[C@@H](C2=NOC3COCC23)C1 (single isomer, unassigned) [Example 18]",–
2000 nM,"O=C(N[C@H]1[C@@H](C(=O)Nc2ccc(F)c(C(F)(F)F)c2)[C@H]2CC[C@@H]1/C2=C\C1CC1)C1CCC[C@@H](C2=NOC3COCC23)C1 (single isomer, unassigned) [Example 19]",–
1200 nM,"O=C(CCCCCCCO)N[C@@H]1C2CCC(/C2=C/C2CC2)C1C(=O)Nc1ccc(F)c(C(F)(F)F)c1 (stereo in doubt) [Example 5, (1R,2R,3R,4R,Z)-7-(cyclopropylmethylene)-N-(4-fluoro-3-(trifluoromethyl)phenyl)-3-(8-hydroxyoctanamido)bicyclo [2.2.1]heptane-2-carboxamide]",–
3800 nM,"COc1ccc(Cl)cc1NC(=O)N[C@H]1[C@@H](C(=O)Nc2ccc(F)c(C(F)(F)F)c2)[C@H]2CC[C@@H]1/C2=C\C(F)(F)F [Example 4, (1R,2S,3R,4R,Z)-3-(3-(5-chloro-2-methoxyphenyl)ureido)-N-(4-fluoro-3-(trifluoromethyl)phenyl)-7-(2,2,2-trifluoroethylidene)bicyclo[2.2.1]heptane-2-carboxamide]",–
3300 nM,"CO[C@H](C(=O)N[C@H]1[C@@H](C(=O)Nc2ccc(F)c(C(F)(F)F)c2)[C@H]2CC[C@@H]1/C2=C\C(F)(F)F)c1ccccc1 [Example 6, (1R,2S,3R,4R,Z)-N-(4-fluoro-3-(trifluoromethyl)phenyl)-3-((S)-2-methoxy-2-phenylacetamido)-7-(2,2,2-trifluoroethylidene)bicyclo [2.2.1]heptane-2-carboxamide]",–
3400 nM,"O=C(N[C@H]1[C@@H](C(=O)Nc2ccc(F)c(C(F)(F)F)c2)[C@H]2CC[C@@H]1/C2=C\C(F)(F)F)C(O)c1cccc(Oc2ccccc2)c1 (stereo partly drawn) [Example 7, (1R,2S,3R,4R,Z)-N-(4-fluoro-3-(trifluoromethyl)phenyl)-3-(2-hydroxy-2-(3-phenoxyphenyl)acetamido)-7-(2,2,2-trifluoroethylidene)bicyclo [2.2.1]heptane-2-carboxamide]",–
4700 nM,"O=C(O)CCCCCCC(=O)N[C@H]1[C@@H](C(=O)Nc2ccc(F)c(C(F)(F)F)c2)[C@H]2CC[C@@H]1/C2=C\C1CC1 [Example 8, 8-(((1R,2R,3S,4R,Z)-7-(cyclopropylmethylene)-3-((4-fluoro-3-(trifluoromethyl)phenyl)carbamoyl)bicyclo[2.2.1]heptan-2-yl)amino)-8-oxooctanoic acid]",–
4300 nM,O=C(O)c1cccc(C2CCC(C(=O)N[C@H]3[C@@H](C(=O)Nc4ccc(F)c(C(F)(F)F)c4)[C@H]4CC[C@@H]3/C4=C\C(F)(F)F)CC2)c1 (some centres unmarked) [Example 11],–
1000 nM,"O=C(N[C@H]1[C@@H](C(=O)Nc2ccc(F)c(C(F)(F)F)c2)[C@H]2CC[C@@H]1/C2=C\C1CC1)C1CCC[C@@H](C2=NOC3COCC23)C1 (stereo partly drawn) [Example 16, (1R,2S,3R,4R,7Z)-3-[(3R)-3-{3aH,4H,6H,6aH-furo[3,4-d][1,2]oxazol-3-yl}cyclohexaneamido]-7-(cyclopropylmethylidene)-N-[4-fluoro-3-(trifluoromethyl)phenyl]bicyclo [2.2.1]heptane-2-carboxamide]",–
–,Serelaxin,5.4 min
